Source: patent publication US10800792B2, “Inhibitors of Bruton's tyrosine kinase and method of their use” (JANSSEN PHARMACEUTICA NV, priority 2015, dated 2020)

What follows are compounds tested against unphosphorylated-BTK kinase domain (UP-BTK), GST-tagged human BTK (389-659aa) (Homo sapiens (Human), UniProt Q06187) (assay: BTK kinase Lanthascreen binding assay). Conditions: Lanthascreen tracer competition, 60 minutes incubation; pIC50 = negative log of the IC50 in molar.
Summary of the method: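 Tracer-displacement binding assay against the non-phosphorylated enzyme, read by Lanthascreen. Reported: pIC50.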

Chain of unphosphorylated-BTK kinase domain (UP-BTK), GST-tagged human BTK (389-659aa) (Q06187 389-659): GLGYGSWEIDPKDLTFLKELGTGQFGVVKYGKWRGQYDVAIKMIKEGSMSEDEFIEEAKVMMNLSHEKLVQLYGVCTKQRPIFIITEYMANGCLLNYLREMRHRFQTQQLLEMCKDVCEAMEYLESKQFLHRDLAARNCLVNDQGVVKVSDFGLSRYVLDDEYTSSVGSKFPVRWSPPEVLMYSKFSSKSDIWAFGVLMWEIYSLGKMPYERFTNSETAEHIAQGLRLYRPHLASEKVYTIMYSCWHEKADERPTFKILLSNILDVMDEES

Compound	BTK_I_binding pIC50
O=C(N[C@@H]1CCCN(C(=O)/C=C/CO)C1)c1sc2nccc3c2c1NC(=O)N3c1ccc(Oc2ccccc2)cc1 [Example 590, (R,E)-N-(1-(4-Hydroxybut-2-enoyl)piperidin-3-yl)-4-oxo-5-(4-phenoxyphenyl)-4,5-dihydro-3H-1-thia-3,5,8-triazaacenaphthylene-2-carboxamide]	7.5
C=CC(=O)N1CCC[C@@H](NC(=O)c2sc3nccc4c3c2NC(=O)N4c2ccc(OC3CCC3)nc2)C1 [Example 687, (R)—N-(1-Acryloylpiperidin-3-yl)-5-(6-cyclobutoxypyridin-3-yl)-4-oxo-4,5-dihydro-3H-1-thia-3,5,8-triazaacenaphthylene-2-carboxamide]	7.5

Same assay, conditions: Lanthascreen tracer competition, 60 minutes incubation; pIC50 = negative log of the IC50 in molar; read-out: BTK_I_binding pIC50 (converted)

Compound	IC50 [µM]
O=C(N[C@@H]1CCCNC1)c1sc2nccc3c2c1NC(=O)N3c1cccc(-c2ccncc2)c1 [Example 647, (R)-4-Oxo-N-(piperidin-3-yl)-5-(3-(pyridin-4-yl)phenyl)-4,5-dihydro-3H-1-thia-3,5,8-triazaacenaphthylene-2-carboxamide]	> 10

Same assay, conditions: pIC50 = negative log of the IC50 in molar; 60 minutes incubation, 50 nM Tracer 236

Compound	BTK_I_binding pIC50
Cc1cc(Oc2cccc(COc3ccccc3C#N)c2)ccc1N1C(=O)Nc2c(C(=O)N[C@@H]3CCCN(C)C3)sc3nccc1c23 (mixture of isomers) [Example 24, (R)-5-(4-(3-((2-Cyanophenoxy)methyl)phenoxy)-2-methylphenyl)-N-(1-methylpiperidin-3-yl)-4-oxo-4,5-dihydro-3H-1-thia-3,5,8-triazaacenaphthylene-2-carboxamide]	7.7
Cc1cc(Oc2ccccc2)ccc1N1C(=O)Nc2c(C(=O)N[C@H]3CNCC(F)(F)C3)sc3nccc1c23 [Example 174, (R)—N-(5,5-Difluoropiperidin-3-yl)-5-(2-methyl-4-phenoxyphenyl)-4-oxo-4,5-dihydro-3H-1-thia-3,5,8-triazaacenaphthylene-2-carboxamide]	6.6
Cc1cc(Oc2ccccc2)ccc1N1C(=O)Nc2c(C(=O)N[C@H]3CNC[C@H](O)C3)sc3nccc1c23 [Example 179, N-((3R,5R)-5-Hydroxypiperidin-3-yl)-5-(2-methyl-4-phenoxyphenyl)-4-oxo-4,5-dihydro-3H-1-thia-3,5,8-triazaacenaphthylene-2-carboxamide]	7.0
Cc1cc(Oc2ccccc2C(C)C)ccc1N1C(=O)Nc2c(C(=O)N[C@@H]3CCCN(C)C3)sc3nccc1c23 [Example 223, (R)-5-(4-(2-Isopropylphenoxy)-2-methylphenyl)-N-(1-methylpiperidin-3-yl)-4-oxo-4,5-dihydro-3H-1-thia-3,5,8-triazaacenaphthylene-2-carboxamide]	6.6
Cc1cc(Oc2ccccc2)ccc1N1C(=O)Nc2c(C(=O)N[C@@H]3CCN(C)C3)sc3nccc1c23 [Example 117, (R)-5-(2-Methyl-4-phenoxyphenyl)-N-(1-methylpyrrolidin-3-yl)-4-oxo-4,5-dihydro-3H-1-thia-3,5,8-triazaacenaphthylene-2-carboxamide]	6.9
Cc1cc(Oc2ccccc2OC(F)(F)F)ccc1N1C(=O)Nc2c(C(=O)N[C@@H]3CCCN(C)C3)sc3nccc1c23 [Example 227, (R)-5-(2-Methyl-4-(2-(trifluoromethoxy)phenoxy)phenyl)-N-(1-methylpiperidin-3-yl)-4-oxo-4,5-dihydro-3H-1-thia-3,5,8-triazaacenaphthylene-2-carboxamide]	6.5
C=CC(=O)N1CCC[C@@H](NC(=O)c2sc3nccc4c3c2NC(=O)N4c2cccc(C)c2)C1 [Example 279, (R)—N-(1-Acryloylpiperidin-3-yl)-4-oxo-5-(m-tolyl)-4,5-dihydro-3H-1-thia-3,5,8-triazaacenaphthylene-2-carboxamide]	6.2
Cc1cc(Oc2ccccc2)ccc1N1C(=O)Nc2c(C(=O)NC[C@@H]3CCCN3C)sc3nccc1c23 [Example 265, (S)-5-(2-Methyl-4-phenoxyphenyl)-N-((1-methylpyrrolidin-2-yl)methyl)-4-oxo-4,5-dihydro-3H-1-thia-3,5,8-triazaacenaphthylene-2-carboxamide]	6.4
C=CC(=O)N1CCC[C@@H](NC(=O)c2sc3nccc4c3c2NC(=O)N4c2ccccc2F)C1 [Example 194, (R)—N-(1-Acryloylpiperidin-3-yl)-5-(2-fluorophenyl)-4-oxo-4,5-dihydro-3H-1-thia-3,5,8-triazaacenaphthylene-2-carboxamide]	6.9
Cc1cc(Oc2ccccc2)ccc1N1C(=O)Nc2c(C(=O)N[C@H]3CN(C)C[C@@H]3O)sc3nccc1c23 [Example 243, N-((3S,4S)-4-Hydroxy-1-methylpyrrolidin-3-yl)-5-(2-methyl-4-phenoxyphenyl)-4-oxo-4,5-dihydro-3H-1-thia-3,5,8-triazaacenaphthylene-2-carboxamide]	6.6
C=CC(=O)N1CCC[C@@H](NC(=O)c2sc3nccc4c3c2NC(=O)N4c2ccc(F)cc2)C1 [Example 255, (R)—N-(1-Acryloylpiperidin-3-yl)-5-(4-fluorophenyl)-4-oxo-4,5-dihydro-3H-1-thia-3,5,8-triazaacenaphthylene-2-carboxamide]	6.6
CNC(C)(C)/C=C(\C#N)C(=O)N1CCC[C@@H](NC(=O)c2sc3nccc4c3c2NC(=O)N4c2ccc(Oc3ccccc3)cc2C)C1 [Example 238, (R,E)-N-(1-(2-Cyano-4-methyl-4-(methylamino)pent-2-enoyl)piperidin-3-yl)-5-(2-methyl-4-phenoxyphenyl)-4-oxo-4,5-dihydro-3H-1-thia-3,5,8-triazaacenaphthylene-2-carboxamide]	6.8
N#C/C(=C\C1CC1)C(=O)N1CCC[C@@H](NC(=O)c2sc3nccc4c3c2NC(=O)N4c2ccc(Oc3ccccc3)cc2)C1 [Example 47, (R,E)-N-(1-(2-Cyano-3-cyclopropylacryloyl)piperidin-3-yl)-4-oxo-5-(4-phenoxyphenyl)-4,5-dihydro-3H-1-thia-3,5,8-triazaacenaphthylene-2-carboxamide]	8.0

Same assay, conditions: unphosphorylated-BTK kinase domain, 50 nM Tracer 236, 60 minutes; pIC50 = negative log of the IC50 in molar

Compound	BTK_I_binding pIC50
CN(C)C/C=C/C(=O)N1CC[C@@H](NC(=O)c2sc3nccc4c3c2NC(=O)N4c2ccc(Oc3ccccc3)cc2)C1 [Example 440, (R,E)-N-(1-(4-(Dimethylamino)but-2-enoyl)pyrrolidin-3-yl)-4-oxo-5-(4-phenoxyphenyl)-4,5-dihydro-3H-1-thia-3,5,8-triazaacenaphthylene-2-carboxamide]	7.6
Cc1cc(Oc2ccccc2)ccc1N1C(=O)Nc2c(C(=O)NCCC3CCCN3C)sc3nccc1c23 (centres unmarked) [Example 298, 5-(2-Methyl-4-phenoxyphenyl)-N-(2-(1-methylpyrrolidin-2-yl)ethyl)-4-oxo-4,5-dihydro-3H-1-thia-3,5,8-triazaacenaphthylene-2-carboxamide]	6.1
Cc1cc(Oc2ccccc2OC(C)C)ccc1N1C(=O)Nc2c(C(=O)N[C@@H]3CCCN(C)C3)sc3nccc1c23 [Example 283, (R)-5-(4-(2-Isopropoxyphenoxy)-2-methylphenyl)-N-(1-methylpiperidin-3-yl)-4-oxo-4,5-dihydro-3H-1-thia-3,5,8-triazaacenaphthylene-2-carboxamide]	6.2
C=CC(=O)N1CCC[C@@H](NC(=O)c2sc3nccc4c3c2NC(=O)N4c2cccc(C(C)=O)c2)C1 [Example 566, (R)-5-(3-Acetylphenyl)-N-(1-acryloylpiperidin-3-yl)-4-oxo-4,5-dihydro-3H-1-thia-3,5,8-triazaacenaphthylene-2-carboxamide]	6.6
C=CC(=O)N1CCC[C@@H](NC(=O)c2sc3nccc4c3c2NC(=O)N4c2ccc(Cc3ccccc3)cc2)C1 [Example 422, (R)—N-(1-Acryloylpiperidin-3-yl)-5-(4-benzylphenyl)-4-oxo-4,5-dihydro-3H-1-thia-3,5,8-triazaacenaphthylene-2-carboxamide]	7.5
CCC(=O)N1CCC[C@@H](NC(=O)c2sc3nccc4c3c2NC(=O)N4c2ccc(Oc3ccccc3)cc2C)C1 (single isomer, unassigned) [Example 345, (R)-5-(*R)-(2-Methyl-4-phenoxyphenyl)-4-oxo-N-(1-propionylpiperidin-3-yl)-4,5-dihydro-3H-1-thia-3,5,8-triazaacenaphthylene-2-carboxamide]	<5
C=CC(=O)N1CCC[C@@H](NC(=O)c2sc3nccc4c3c2NC(=O)N4c2cccc(-c3cccc(C)c3)c2)C1 [Example 517, (R)—N-(1-Acryloylpiperidin-3-yl)-5-(3′-methyl-[1,1′-biphenyl]-3-yl)-4-oxo-4,5-dihydro-3H-1-thia-3,5,8-triazaacenaphthylene-2-carboxamide]	7.5
C=CC(=O)N1CCC[C@@H](NC(=O)c2sc3nccc4c3c2NC(=O)N4c2cccc(-c3ccc(C)cc3)c2)C1 [Example 521, (R)—N-(1-Acryloylpiperidin-3-yl)-5-(4′-methyl-[1,1′-biphenyl]-3-yl)-4-oxo-4,5-dihydro-3H-1-thia-3,5,8-triazaacenaphthylene-2-carboxamide]	7.5
Cc1cc(Oc2ccccc2)ccc1N1C(=O)Nc2c(C(=O)N[C@@H]3CCN(C(=O)CCS(C)(=O)=O)C3)sc3nccc1c23 (single isomer, unassigned) [Example 494, (R)-5-(*S)-(2-Methyl-4-phenoxyphenyl)-N-(1-(3-(methylsulfonyl)propanoyl)pyrrolidin-3-yl)-4-oxo-4,5-dihydro-3H-1-thia-3,5,8-triazaacenaphthylene-2-carboxamide]	8.0

Same assay, conditions: unphosphorylated-BTK kinase domain, 60 minutes incubation, 50 nM Tracer 236; pIC50 = negative log of the IC50 in molar

Compound	BTK_I_binding pIC50
O=C(NCCN1CCOCC1)c1sc2nccc3c2c1NC(=O)N3c1ccc(Oc2ccccc2)cc1 [Example 933, N-(2-Morpholinoethyl)-4-oxo-5-(4-phenoxyphenyl)-4,5-dihydro-3H-1-thia-3,5,8-triazaacenaphthylene-2-carboxamide]	6.1
